For 14 molecules, Activity and IC50 results are on record in ChEMBL document CHEMBL1144683, “Design, synthesis and antiproliferative properties of oligomers with chromophore units linked by amide backbones” (Bioorg Med Chem Lett, 2008).

SMILES strings stand for the structures. The source made the active and inactive calls. The rule behind the calls is not given here.

Series [1] can be described thus: Antiproliferative activity against mouse NIH-3T3 cells by MTT assay. The class given is cell-based, NIH3T3. Particulars: for Activity: mouse, nih3t3; for IC50: Mus musculus, NIH3T3.
The test system of series [2] is Jurkat. In words: Antiproliferative activity against human Jurkat E6-1 cells by MTT assay. Type of series: functional, cell-based.
Series [3] is described as follows: (§1) Antiproliferative activity against human GLC-4S cells by MTT assay. The class given is functional, cell-based.
Series [4] has as its system GLC-4S. The series is described as §1. The class given is functional, cell-based.

As to `CC(=O)N[C@H]1C[C@@H](C(=O)N[C@H]2C[C@@H](C(N)=O)N(C(=O)CNC(=O)c3c4ccccc4nc4c3[nH]c3ccccc34)C2)N(C(=O)CNC(=O)c2c3ccccc3nc3c2[nH]c2ccccc23)C1`, in series [1], the Activity result was “Not Active”. Further, the IC50 in series [2] was 37 µM; in series [3] it was 54 µM.
In the case of `CC(=O)N[C@H]1C[C@@H](C(=O)N[C@H]2C[C@@H](C(=O)N[C@H]3C[C@@H](C(N)=O)N(C(=O)CNC(=O)c4c5ccccc5nc5c4[nH]c4ccccc45)C3)N(C(=O)CNC(=O)c3c4ccccc4nc4c3[nH]c3ccccc34)C2)N(C(=O)CNC(=O)c2c3ccccc3nc3ccccc23)C1`, the IC50 in series [1] worked out at 227 µM; in series [2], 103 µM; in series [3], 151 µM.
Taken in the same sequence, the figures for `CC(=O)N[C@H]1C[C@@H](C(=O)N[C@H]2C[C@@H](C(=O)N[C@H]3C[C@@H](C(N)=O)N(C(=O)CNC(=O)c4c5ccccc5nc5c4[nH]c4ccccc45)C3)N(C(=O)CNC(=O)c3c4ccccc4nc4ccccc34)C2)N(C(=O)CNC(=O)c2c3ccccc3nc3ccccc23)C1` were 426 µM, 86 µM and 174 µM.
In the case of `COC(=O)CNC(=O)c1c2ccccc2nc2ccccc12`, in series [1], the Activity result was “Not Active”. Also, the outcome in series [2] and in series [4] was inactive.
Consider `CC(=O)N[C@H]1C[C@@H](C(=O)NC2C[C@@H](C(=O)NC3C[C@@H](C(N)=O)N(C(=O)CNC(=O)c4c5ccccc5nc5ccccc45)C3)N(C(=O)CNC(=O)c3c4ccccc4nc4ccccc34)C2)N(C(=O)CNC(=O)c2c3ccccc3nc3ccccc23)C1` (some centres not stated), for which, in series [1], the Activity entry was “Not Active”. For the same molecule, the outcome in series [2] was inactive. Further, half-maximal inhibition in series [3] (IC50) was put at 134 µM.
Turning to `CC(=O)N[C@H]1C[C@@H](C(=O)N[C@H]2C[C@@H](C(=O)N[C@H]3C[C@@H](C(N)=O)N(C(=O)CNC(=O)c4c5ccccc5nc5c4[nH]c4ccccc45)C3)N(C(=O)CNC(=O)c3c4ccccc4nc4ccccc34)C2)N(C(=O)CNC(=O)c2c3ccccc3nc3c2[nH]c2ccccc23)C1`, the IC50 is 263 µM in series [1], 112 µM in series [2] and 82 µM in series [3].
`O=C(O)CNC(=O)c1c2ccccc2nc2ccccc12`: the Activity result in series [1] was “Not Active”. The outcome in series [2] and in series [4] was inactive.
Turning to `CC(=O)N[C@H]1C[C@@H](C(=O)N[C@H]2C[C@@H](C(=O)N[C@H]3C[C@@H](C(N)=O)N(C(=O)CNC(=O)c4c5ccccc5nc5ccccc45)C3)N(C(=O)CNC(=O)c3c4ccccc4nc4c3[nH]c3ccccc34)C2)N(C(=O)CNC(=O)c2c3ccccc3nc3ccccc23)C1`, the Activity entry in series [1] is given as “Not Active”. Also, the IC50 in series [2] amounted to 87 µM; in series [3] it was 91 µM.
Taken in the same sequence, the figures for `CC(=O)N[C@H]1C[C@@H](C(=O)N[C@H]2C[C@@H](C(N)=O)N(C(=O)CNC(=O)c3c4ccccc4nc4ccccc34)C2)N(C(=O)CNC(=O)c2c3ccccc3nc3c2[nH]c2ccccc23)C1` were “Not Active”, 120 µM and 165 µM.
For `CC(=O)N[C@H]1C[C@@H](C(=O)N[C@H]2C[C@@H](C(N)=O)N(C(=O)CNC(=O)c3c4ccccc4nc4c3[nH]c3ccccc34)C2)N(C(=O)CNC(=O)c2c3ccccc3nc3ccccc23)C1`, the IC50 turned out to be 376 µM in series [1], 92 µM in series [2] and 125 µM in series [3].
Take `COC(=O)CNC(=O)c1c2ccccc2nc2c1[nH]c1ccccc12`: the Activity result in series [1] is reported as “Not Active”. Half-maximal inhibition in series [2] (IC50) required 8 µM. Moreover, the outcome in series [4] was inactive.
On to `CC(=O)N[C@H]1C[C@@H](C(=O)N[C@H]2C[C@@H](C(N)=O)N(C(=O)CNC(=O)c3c4ccccc4nc4ccccc34)C2)N(C(=O)CNC(=O)c2c3ccccc3nc3ccccc23)C1`, for which the Activity result in series [1] is recorded as “Not Active”. The IC50 is 149 µM in series [2] and 135 µM in series [3].
`CC(=O)N[C@H]1C[C@@H](C(=O)N[C@H]2C[C@@H](C(=O)N[C@H]3C[C@@H](C(N)=O)N(C(=O)CNC(=O)c4c5ccccc5nc5ccccc45)C3)N(C(=O)CNC(=O)c3c4ccccc4nc4ccccc34)C2)N(C(=O)CNC(=O)c2c3ccccc3nc3c2[nH]c2ccccc23)C1`: the IC50 in series [1] came out at 357 µM; in series [2], 129 µM; in series [3], 169 µM.
For `O=C(O)CNC(=O)c1c2ccccc2nc2c1[nH]c1ccccc12`, the Activity result in series [1] is listed as “Not Active”. For the same molecule, the IC50 in series [2] was 12 µM. Also, in series [4], the result was inactive.
